Data reported in US20100167335A1, “METHODS FOR DIAGNOSING AND TREATING ALLERGIES” (The Research Foundation of State University of New York, priority 2008, published 2010).

Key:
Format in all cases: cell-based, human
[1] = tested on: IL-4 in PBMC culture from serum IgE+ allergic asthmatics; test: IL-4 release by PBMC cultures infected with C. pneumoniae MOI 0.1 (Example 3)
Description: (§1) Peripheral blood (15 mL total) was obtained from patients and controls in ethylenediaminotetraacetic (EDTA) tubes. PBMC were isolated from whole blood on Ficoll-Paque (GE Healthcare, Sweden) and then washed in RPMI 1640 with 10% fetal bovine serum (FBS), and resuspended in complete RPMI 1640 (c-RPMI). C-RPMI contained RPMI-1640 Medium HEPES Modification supplemented by L-glutamine 5 mM and 10% FBS. Cells were counted and cell viability evaluated with trypan blue dye using a hemocytometer. PBMC (1.5×10^6/mL) were cultured in duplicate in 24 flat bottom well plates (1 ml/well) for up to 12 days in absolute humidification and 5% CO2. Cell viability at 0, 48 and 240 hours was >95%. Following a 2 h incubation to allow adherance PBMC cultures were infected or stimulated in the presence or absence of doxycycline. Doxycycline was reconstituted in a 1× sterile Dulbecco's Phosphate Buffered Saline (PBS).
(§2) PBMC were infected by adding purified EB at a multiplicity of infection (MOI) of 0.01-5 for 1 hour, followed by further incubation in the presence or absence of doxycycline, at 0.01, 0.1, 1.0 μg/mL, for 2 and 10 days p.i. at 37.0° C. in complete medium in a humidified 5% CO2 atmosphere. The time points 2 d (for cytokines) and 10 d p.i. […] Adherent cells were stained with monoclonal genus specific antibodies to confirm and quantify infection with C. pneumoniae at 72 h post infection. Identical volumes of inactivated C. pneumoniae were added in some experiments. C. pneumoniae was inactivated by incubation in a 56° C. water bath for 30 minutes. […]
(§3) In order to characterize the contribution of different T lymphocyte subpopulations to in vitro IgE production, cytokine concentration in infected and uninfected PBMC cultures were analyzed and determined. […]
(§4) To determine the effect of doxycycline on cytokine release by PBMC, doxycycline (0.01-1.0 ng/ml) was added to culture following infection with C. pneumoniae (MOI=0.1). […] In FIG. 8, the data is expressed as a percent control (PBMC day 10 p.i.), 100% is the mean highest response to Cpn; *P<0.05 for doxycycline treated cultures versus no doxycycline.

[2] = tested on: IFN-γ in PBMC culture from serum IgE+ allergic asthmatics; test: IFN-γ release by PBMC cultures infected with C. pneumoniae MOI 0.1 (Example 3); settings: for IFN-γ level, mean % change: p=NS
Description: as §1, §2, §3, §4

[3] = tested on: PBMC from allergic asthmatics infected with C. pneumoniae; test: In vitro IgE release by PBMC cultures infected with C. pneumoniae MOI 0.1, day 10 (Example 3)
Description: as §1, §2
Doxycycline at a concentration of 1 μg/ml was added to PBMC cultures after one hour incubation with C. pneumoniae MOI of 0.1. […] In FIG. 5, the data is expressed as percent control (PBMC day 10 p.i.); the mean change was 48% decrease; p=0.043. In FIG. 6, the data is expressed as mean IgE±SD (ng/ml) in cultures with the following conditions: uninfected cells (Naïve); Cpn MOI=0.1; Cpn MOI=0.1 and doxycycline […]; Cpn MOI of 1.0 and heat inactivated Cpn.

C[C@H]1c2cccc(O)c2C(=O)C2=C(O)[C@]3(O)C(=O)C(C(N)=O)=C(O)[C@@H](N(C)C)[C@@H]3[C@@H](O)[C@@H]21 [doxycycline]
IL-4 level, mean % decrease ([1]; doxycycline 1 ng/ml, day 2 (48 h), p=0.018): 30±14%
IL-4 level, mean % change ([1]; doxycycline 0.01 μg/ml, p=0.018): −45±33%
IL-4 level, mean % change ([1]; doxycycline 0.1 μg/ml, p<0.05): −60±13%
IFN-γ level, mean % decrease ([2]; doxycycline 1 ng/ml, day 2 (48 h), p=0.043): 43±27%
IFN-γ level, mean % change ([2]; doxycycline 0.01 μg/ml): 5%±11
IFN-γ level, mean % change ([2]; doxycycline 0.1 μg/ml): −1%±18
mean change of IgE response, decrease (FIG. 5, percent control) ([3]; FIG. 5, individual subjects n=5, PBMC day 10 p.i., Cpn MOI=0.1, p=0.043): 48%
suppression of IgE responses (average) ([3]; doxycycline 1 μg/ml added after 1 h incubation with C. pneumoniae MOI 0.1, day 10, p=0.043): 42%
IgE in PBMC culture ([3]; doxycycline 1 μg/ml, C. pneumoniae MOI 0.1, day 10, versus 5.9±6.0 ng/ml without doxycycline): 3.4 ± 3.9 ng/mL
